# From US20240197666A1, “DITERPENOID COMPOUNDS THAT ACT ON PROTEIN KINASE C (PKC)” (K-Gen Therapeutics, Inc., priority 2021, published 2024)
# Columns and labels:
# C1b domain of human PKCα = molecular target: T1, C1b domain of human PKCα (Homo sapiens, UniProt P17252); assay: biochemical; assay type: binding; settings: 3H-PDBu competition
# T1 construct: Genes encoding C1b domains of human PKCα, δ, ε, θ, and PKD1 (PKCμ) were synthesized; made in house; host or cells: E. coli BL21(DE3)
# C1b domain of human PKCε = molecular target: T2, C1b domain of human PKCε (Homo sapiens, UniProt Q02156); assay: biochemical; assay type: binding; settings: 3H-PDBu competition
# T2 construct: Genes encoding C1b domains of human PKCα, δ, ε, θ, and PKD1 (PKCμ) were synthesized; made in house; host or cells: E. coli BL21(DE3)
# T2 sequence (Q02156 242-292 limits assumed): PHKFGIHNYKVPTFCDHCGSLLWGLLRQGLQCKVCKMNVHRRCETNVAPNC
# Summary of the method: (§1)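 Binding is reported as Ki, derived from IC50 using Cheng-Prusoff with the experimentally determined 3H-PDBu Kd of each protein preparation. Tracer displacement from recombinant human GST-C1b (E. coli BL21(DE3)) was read by filter scintillation after 10 min at 37° C plus 20 min on ice.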
# A549 cell line = assay: Proliferation of A549 (CellTiter Glo); assay type: cell-based; settings: Homo sapiens, A549, 96 h, read-out: IC50 μM (A549 Cell Line)
# Summary of the method: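 Compound effect on proliferation was read as CellTiter Glo luminescence after 96 h exposure to a 3-fold dilution series (≤0.25% DMSO). A549 cells, which carry activating K-Ras, were plated at 1,000/well one day before dosing. IC50, relative IC50 and maximal inhibition were fitted from % inhibition versus DMSO control.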
# Panc2.13 (Pancreatic) = assay: Proliferation of Panc2.13; assay type: cell-based
# Experimental: (§2) The diterpenoid compounds were tested in A549, a non-small cell lung cancer cell line harboring a K-Ras activating mutation. Briefly, A549 cells at a density of 1,000 cells/well were seeded in 96-well plates and incubated at 37° C. for 24 hours. A series of different concentrations of compound stocks (500×) were prepared by 3-fold serial dilution in DMSO. These compounds were further diluted in culture media and then added to cells so that the final DMSO concentration was not exceeding 0.25%. After 96 hours of incubation, 50 μL of CellTiter Glo reagent (Promega) was added to each well and luminescence was measured after 10 minutes using EnVision (PerkinElmer). Luminescence from cells treated with DMSO alone was set as Max and % of inhibition was calculated as follows: Inhibition %=(Max-Sample value)/Max×100. Data was analyzed using XL-fit software (ID Business Solutions Ltd.) and IC50, relative IC50, and % of top inhibition was calculated. Some of the compounds in this disclosure were very potent in blocking proliferation of A549 lung cancer cells at low nM range. In addition, potency of inhibiting A549 proliferation correlated well with its binding affinity to PKCs for this series of compounds. In other words, higher affinity binders had stronger inhibitory effects on A549 proliferation. This further support the notion that activation, rather than inhibition, of certain PKC isoforms is required to block proliferation of cancer cells, some of which may harbor K-Ras mutations. This is in sharp contrast to previous literature and common belief that inhibition of PKC is necessary to block cancer cell growth (Kang, 2014, New Journal of Science, 2014:1-36). Data presented here is in agreement with recent findings that many loss-of-function but not gain-of-function mutations of PKC isoforms have been identified in many human cancers (Antal et al., 2015, Cell, 160:489-502).
# (§3) The compounds in this disclosure were tested for their potency in blocking proliferation of a few other cancer cells lines, including K-Ras mutant pancreatic cell lines Panc2.13 and KP-4, leukemia cell line HL-60, and lymphoma cell lines Namalwa and Mino. Similar procedures as in Example 67 were followed. Initial cell numbers seeded in 96-well plates were different for different cell lines: 3000 cells/well for Panc2.13; 800-1000 cells/well for KP-4; 5000 cells/well for HL-60; 5000-10000 cells/well for Namalwa and Mino. A ratio of (IC50 of K101)/(IC50 of compound) (data in parenthesis in Table 5) was used to normalize the compound potency from different assay batches to a common comparator K101.
# KP-4 (Pancreatic) = assay: Proliferation of KP-4; assay type: cell-based; settings: read-out: IC50 KP-4 (Pancreatic)
# Experimental: as §2, §3
# HL-60 (Leukemia) = assay: Proliferation of HL-60; assay type: cell-based
# Namalwa (Lymphoma) = assay: Proliferation of Namalwa; assay type: cell-based
# Summary of the method: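 Proliferation was measured in the K-Ras mutant pancreatic lines and in HL-60 and Namalwa cells. These were plated at densities set per line and left 24 h before compound was added. After 96 h with serially diluted compound, viability was read by CellTiter Glo and IC50 derived.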
# Mino (Lymphoma) = assay: Proliferation of Mino; assay type: cell-based
# Summary of the method: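 Luminescent ATP read-out (CellTiter Glo) after 96 h compound exposure gave % inhibition relative to DMSO-treated cells, from which IC50 was fitted. Seeding densities were line-specific, from 800 to 10000 cells/well. Potency across batches was normalised to reference compound K101.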
# [1] = test system: NFκB-driven transcription in HeLa-NFκB luciferase reporter cell line; assay: NFκB luciferase reporter assay; settings: Homo sapiens, HeLa, 16 h, read-out: NFκB-luc HeLa cells EC50 (μM)
# C1b domain of human PKCθ = molecular target: T3, C1b domain of human PKCθ (Homo sapiens, UniProt Q04759); assay: biochemical; assay type: binding; settings: 3H-PDBu competition
# T3 construct: Genes encoding C1b domains of human PKCα, δ, ε, θ, and PKD1 (PKCμ) were synthesized; made in house; host or cells: E. coli BL21(DE3)
# T3 sequence (Q04759 231-281 limits assumed): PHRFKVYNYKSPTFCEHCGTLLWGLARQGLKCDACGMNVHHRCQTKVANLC
# Summary of the method: as §1
# Panc2.13 tumors = assay: Panc2.13 xenograft model, intra-tumoral injection; assay type: in vivo, mouse; settings: end of efficacy study, three mice per group, seven daily IT injections
# Experimental: Immunodeficient (athymic) Nu/Nu mice were implanted at one flank subcutaneously with Panc2.13 pancreatic cancer cells. […] All groups tolerated drug treatments very well. […] Scabs formed after 1-2 weeks and the skin recovered with minimal scaring after 3-4 weeks. Tumor growth/re-growth on or near the injection site was monitored for up to 55 days. […] Tumor growth inhibition is calculated by dividing the group average tumor volume for the treated group by the group average tumor volume for the control group (TIC). A one-way ANOVA was performed to compare tumor volume among groups, and when a significant F-statistics (a ratio of treatment variance to the error variance) was obtained, comparisons between groups were carried out with Games-Howell test. All data were analyzed using GraphPad 5.0. P<0.05 was considered to be statistically significant.
# A Mann-Whitney method was performed to analyze the tumor clearance rate comparing drug treated groups with the vehicle group at the end of the efficacy study. P<0.05 was considered to be statistically significant. Vehicle-injected tumors kept growing and there was no tumor clearance at the end point.
SMILES,Ki (C1b domain of human PKCα) [nM],Ki (C1b domain of human PKCε) [nM],IC50 (A549 cell line) [µM],ratio (IC50 of K101)/(IC50 of compound) Panc2.13 (Panc2.13 (Pancreatic)),IC50 (Panc2.13 (Pancreatic); read-out: IC50 Panc2.13 (Pancreatic)) [nM],IC50 (KP-4 (Pancreatic)) [nM],ratio (IC50 of K101)/(IC50 of compound) HL-60 (HL-60 (Leukemia)),"IC50 (HL-60 (Leukemia); Homo sapiens, HL-60, read-out: IC50 HL-60 (Leukemia)) [nM]",ratio (IC50 of K101)/(IC50 of compound) Namalwa (Namalwa (Lymphoma)),IC50 (Namalwa (Lymphoma); read-out: IC50 Namalwa (Lymphoma)) [nM],ratio (IC50 of K101)/(IC50 of compound) Mino (Mino (Lymphoma)),"IC50 (Mino (Lymphoma); Homo sapiens, MINO, read-out: IC50 Mino (Lymphoma)) [nM]",EC50 [1] [µM],Ki (C1b domain of human PKCθ) [nM],tumor clearance (Panc2.13 tumors)
CC/C=C\C/C=C\C/C=C\C/C=C\C/C=C\C/C=C\CCC(=O)O[C@@]12C[C@@H](C)[C@@]3(O)[C@@H](C=C(CO)C[C@]4(O)C(=O)C(C)=C[C@@H]34)[C@@H]1C2(C)C,60 to 100,10 to 30,0.001 to 0.01,157,1 to 10,1 to 10,80,1 to 10,20.9,1 to 10,82.5,< 1,0.001 to 0.01,–,–
CC1=C[C@H]2[C@@]3(O)[C@H](C)C[C@]4(OC(=O)[C@@H](N)CCCCCCc5ccc(C(F)(F)F)cc5)[C@H]([C@@H]3C=C(CO)C[C@]2(O)C1=O)C4(C)C,60 to 100,10 to 30,0.01 to 0.03,–,–,–,–,–,–,–,–,–,–,10 to 30,–
CC1=C[C@H]2[C@@]3(O)[C@H](C)C[C@]4(OC(=O)[C@H](N)CCCCCCc5ccccc5)[C@H]([C@@H]3C=C(CO)C[C@]2(O)C1=O)C4(C)C [Compound K101-K134801],–,–,–,–,–,–,–,–,–,–,–,–,–,–,complete clearance of tumors
